In US4218448A, “Antihypertensive polyfluorohydroxyisopropyl bicyclic and tricyclic carbostyrils” (E. I. Du Pont de Nemours and Company, priority 1977, dated 1980):
Where two headings read alike, the source gives them in different places.

Test system: DOCA hypertensive rats
Assay: Antihypertensive activity in DOCA hypertensive rats (oral), systolic arterial blood pressure
Type: in vivo
Details: Rattus norvegicus, 1.5 h, read-out: ED50
Method: Rats are made hypertensive by subcutaneous implantation of pellets of desoxycorticosterone acetate (DOCA) and by giving saline solution to drink essentially according to the method described by Sturtevant [Annals of Internal Medicine, 49, 1281 (1958)]. Graded dose levels of each compound are administered orally to groups of 8 hypertensive rats. The compound is prepared in an aqueous polyvinyl alcohol/acacia vehicle and administered at a volume to body weight ratio of 5.0 ml/kg. Sixteen hypertensive rats receiving the aqueous vehicle by the same route serve as controls for each test. At various intervals of time after treatment, usually 90 minutes, the systolic arterial blood pressure of each rat is determined by a modification of the microphone-manometer technique [Friedman, M. and Freed, S. C., Proc. Soc. Exp. Biol, and Med., 70, 670 (1949)]. […]

[1] = oral, groups of 8 DOCA hypertensive rats, usually 90 minutes after treatment, dose producing 30 mm Hg reduction in blood pressure vs controls (Effective Dose 30, ED30)

Work on `CCc1cc(=O)n2c3c(cc(C(O)(C(F)(F)F)C(F)(F)F)cc13)CCC2` [Example 8, 2,3-dihydro-7-ethyl-9-[2,2,2-trifluoro-1-hydroxy-1-(trifluoromethyl)-ethyl]-1H,5H-benzo[ij]quinolizin-5-one] yielded an ED (30 mm Hg) [1] of 0.27 mg/kg.

With `Cc1cc(=O)n2c3c(cc(C(O)(C(F)(F)F)C(F)(F)F)cc13)C(C)C2` (centres unmarked) the ED (30 mm Hg) [1] was 0.6 mg/kg.

For `Cc1cc(=O)n2c3c(cc(C(O)(C(F)(F)F)C(F)(F)F)cc13)CC2` [Example 11, 1,2-dihydro-8-[2,2,2-trifluoro-1-hydroxy-1-(trifluoromethyl)ethyl]-6-methyl-4H-pyrrolo[3,2,1-ij]quinolin-4-one], the ED (30 mm Hg) [1] was 0.13 mg/kg.

Work on `Cc1c(Br)c(=O)n2c3c(cc(C(O)(C(F)(F)F)C(F)(F)F)cc13)CCC2` [Example 10] yielded an ED (30 mm Hg) [1] of 9 mg/kg.

For `Cc1c([N+](=O)[O-])c(=O)n2c3c(cc(C(O)(C(F)(F)F)C(F)(F)F)cc13)CC2` [Example 12, 1,2-dihydro-8-[2,2,2-trifluoro-1-hydroxy-1-(trifluoromethyl)-ethyl]-6-methyl-5-nitro-4H-pyrrolo[3,2,1-ij]quinolin-4-one], the ED (30 mm Hg) [1] was 1.5 mg/kg.

Molecule `Cc1cc(=O)n2c3c(cc(C(O)(C(F)(F)F)C(F)(F)F)cc13)CC2C` (centres unmarked) [Example 14, 1,2-dihydro-2,6-dimethyl-8-[2,2,2-trifluoro-1-hydroxy-1-(trifluoromethyl)-ethyl]-4H-pyrrolo[3,2,1-ij]quinolin-4-one] has an ED (30 mm Hg) [1] of 0.047 mg/kg.

In the case of `CCc1cc(C(O)(C(F)(F)F)C(F)(F)F)cc2c(C)cc(=O)[nH]c12` [Example 26], the ED (30 mm Hg) [1] is reported as 1.3 mg/kg.

Work on `CCc1cc(=O)n2c3c(cc(C(O)(C(F)(F)F)C(F)(F)F)cc13)CC2` [Example 22, 1,2-dihydro-6-ethyl-8-[2,2,2-trifluoro-1-hydroxy-1-(trifluoromethyl)ethyl]-4H-pyrrolo[3,2,1-ij]quinolin-4-one] yielded an ED (30 mm Hg) [1] of 0.11 mg/kg.

Molecule `Cc1cc(=O)n2c3c(cc(C(O)(C(F)(F)F)C(F)(F)F)cc13)CCCC2` [Example 23, 5,6,7,8-tetrahydro-10-[2,2,2-trifluoro-1-hydroxy-1-(trifluoromethyl)ethyl]-1-methyl-3H-azepino[3,2,1-ij]quinolin-3-one] has an ED (30 mm Hg) [1] of 1.3 mg/kg.

`Cc1c(Cl)c(=O)n2c3c(cc(C(O)(C(F)(F)F)C(F)(F)F)cc13)CCC2` [Example 9, 6-chloro-2,3-dihydro-9-[2,2,2-trifluoro-1-hydroxy-1-(trifluoromethyl)ethyl]-7-methyl-1H,5H-benzo[ij]quinolizin-5-one] was tested, and the ED (30 mm Hg) (po) was 1.6 mg/kg.

`Cc1cc(=O)n2c3c(cc(C(O)(C(F)F)C(F)F)cc13)CC2` [Example 54] gave an ED (30 mm Hg) [1] of 1.2 mg/kg.

Work on `Cc1cc(=O)n2c3c(cc(C(O)(C(F)(F)F)C(F)(F)F)cc13)CCC2C` (centres unmarked) [Example 2, 2,3-dihydro-3,7-dimethyl-9-[2,2,2-trifluoro-1-hydroxy-1-(trifluoromethyl)ethyl]-1H,5H-benzo-[ij]quinolizin-5-one] yielded an ED (30 mm Hg) [1] of 0.66 mg/kg.

For `COC(c1cc2c3c(c1)c(C)cc(=O)n3CC2)(C(F)(F)F)C(F)(F)F` [Example 50, 1,2-dihydro-8-[2,2,2-trifluoro-1-methoxy-1-(trifluoromethyl)-ethyl]-6-methyl-4H-pyrrolo[3,2,1-ij]quinolin-4-one], the ED (30 mm Hg) [1] was 0.35 mg/kg.

`O=c1ccc2cc(C(O)(C(F)(F)F)C(F)(F)F)cc3c2n1CCC3` [Example 42, 2,3-dihydro-9-[2,2,2-trifluoro-1-hydroxy-1-(trifluoromethyl)ethyl]-1H,5H-benzo[ij]quinolizin-5-one] showed an ED (30 mm Hg) [1] of 3 to 9 mg/kg.

`Cc1cc(=O)n2c3c(cc(C(O)(C(F)(F)F)C(F)(F)F)cc13)CCC2` [Example 1, 2,3-dihydro-9-[2,2,2-trifluoro-1-hydroxy-1-(trifluoromethyl)ethyl]-7-methyl-1H,5H-benzo[ij]quinolizin-5-one] showed an ED (30 mm Hg) [1] of 1 mg/kg.

`Cc1cc(=O)n2c3c(cc(C(O)(C(F)(F)F)C(F)(F)F)cc13)C(C)CC2` (centres unmarked) was tested, and the ED (30 mm Hg) [1] was 3.6 mg/kg.

`CCCCCCCCCCCC(=O)OC(c1cc2c3c(c1)c(C)cc(=O)n3CC2)(C(F)(F)F)C(F)(F)F` [Example 45, 1,2-dihydro-8-[2,2,2-trifluoro-1-hydroxy-1-(trifluoromethyl)ethyl]-6-methyl-4H-pyrrolo[3,2,1-ij]quinolin-4-one laurate] was tested, and the ED (30 mm Hg) [1] was 0.12 mg/kg.

`Cc1c(N)c(=O)n2c3c(cc(C(O)(C(F)(F)F)C(F)(F)F)cc13)CC2` [Example 13, 1,2-dihydro-8-[2,2,2-trifluoro-1-hydroxy-1-(trifluoromethyl)-ethyl]-5-amino-6-methyl-4H-pyrrolo[3,2,1-ij]quinolin-4-one] gave an ED (30 mm Hg) [1] of 5.4 mg/kg.

Molecule `CCOC(c1cc2c3c(c1)c(C)cc(=O)n3CC2)(C(F)(F)F)C(F)(F)F` [Example 51] has an ED (30 mm Hg) [1] of 0.5 mg/kg.

`Cc1cc(=O)n2c3c(cc(C(O)(C(F)F)C(F)(F)F)cc13)CC2` (centres unmarked) [Example 52, 1,2-dihydro-8-[2,2,-difluoro-1-hydroxy-1-(trifluoromethyl)ethyl]-6-methyl-4H-pyrrolo[3,2,1-ij]quinolin-4-one] gave an ED (30 mm Hg) [1] of 0.075 mg/kg.

`Cc1cc(=O)[nH]c2c(C)cc(C(O)(C(F)(F)F)C(F)(F)F)cc12` [Example 25] gave an ED (30 mm Hg) [1] of 3.7 mg/kg.

`Cc1cc(=O)n2c3c(cc(C(O)(C(F)(F)F)C(F)(F)Cl)cc13)CC2` (centres unmarked) [Example 53, 1,2-dihydro-8 [2-chloro-2,2-difluoro-1-hydroxy-1-(trifluoromethyl)ethyl]-6-methyl-4H-pyrrolo[3,-2,1-ij]quinolin-4-one] gave an ED (30 mm Hg) [1] of 0.07 mg/kg.

`CCn1c(=O)cc(C)c2cc(C(O)(C(F)(F)F)C(F)(F)F)ccc21` [Example 31, 1-ethyl-6-[2,2,2-trifluoro-1-hydroxy-1-(trifluoromethyl)ethyl]-4-methyl-2(1H)-quinolinone] gave an ED (30 mm Hg) [1] of 1.2 mg/kg.

Molecule `Cc1cc(=O)[nH]c2ccc(C(O)(C(F)(F)F)C(F)(F)F)cc12` [Example 24, 6-(2,2,2-trifluoro-1-hydroxy-1-(trifluoromethyl)ethyl)-4-methyl-2(1H)-quinolinone] has an ED (30 mm Hg) [1] of 4.1 mg/kg.

`CCCCn1c(=O)cc(C)c2cc(C(O)(C(F)(F)F)C(F)(F)F)ccc21` [Example 34] gave an ED (30 mm Hg) [1] of 5.2 mg/kg.

Work on `Cc1cc(=O)n(C)c2ccc(C(O)(C(F)(F)F)C(F)(F)F)cc12` [Example 32] yielded an ED (30 mm Hg) [1] of 0.4 mg/kg.

With `CCC(=O)OC(c1cc2c3c(c1)c(C)cc(=O)n3CC2)(C(F)(F)F)C(F)(F)F` [Example 43, 1,2-dihydro-8-[2,2,2-trifluoro-1-hydroxy-1-(tri-fluoromethyl)ethyl]-6-methyl-4H-pyrrolo[3,2,1-ij]quinolin-4-one propanoate] the ED (30 mm Hg) [1] was 0.22 mg/kg.

`Cc1cc(=O)n2c3c(cc(C(OC(=O)c4ccccc4)(C(F)(F)F)C(F)(F)F)cc13)CC2` [Example 46] gave an ED (30 mm Hg) [1] of 0.25 mg/kg.

`CC(=O)OC(c1cc2c3c(c1)c(C)cc(=O)n3CC2)(C(F)(F)F)C(F)(F)F` [Example 44, 1,2-dihydro-8-[2,2,2-trifluoro1-hydroxy-1-(trifluoromethyl)ethyl]-6-methyl-4H-pyrrolo[3,2,1-ij]quinolin-4-one acetate] showed an ED (30 mm Hg) [1] of 0.2 mg/kg.
